From patent US20060009415A1, “Corneal epithelial migration promoter” (priority 2000, published 2006)

Test system: corneal epithelial layer of rabbit cornea blocks
Experiment: Corneal epithelial migration in rabbit cornea tissue culture (method of Nishida et al.)
Assay type: cell-based, male Japanese white rabbits
Conditions: for Corneal Epithelial Migration Rate (%): 24 h, 37.5° C., 5% CO2, control set at 100%; for corneal epithelial migration promoting effect (in words): summary of Table 1, rabbit cornea tissue culture
Experimental: Using cornea specimen s collected from male Japanese white rabbits, the corneal epithelial migration length was used as an index in studying the cornea tissue culturing system according to the method of Nishida, et al. (J. Cell Biol., 97, 1653-1657 (1983)). Cornea blocks (6 specimens for each group) cut from rabbit cornea pieces were cultured in a culture solution (TCM-199) containing an invention compound at 37.5° C. and 5% CO2 for 24 h. After culturing, the cornea blocks were fixed in an ethanol/glacial acetic acid (95:5 by volume) mixture solution, followed by embedding with paraffin to form slices. After removal of the paraffin, the slices were subjected to hematoxylin-eosin staining, and the length of migration of the corneal epithelial layer was observed using a microscope. As a control, culturing was also performed using a culture solution not containing an invention compound.

[1] = compound 100 μM in culture solution (TCM-199)
[2] = compound 10 μM in culture solution (TCM-199)

Structure (SMILES)	Corneal Epithelial Migration Rate (%) [1] [%]	corneal epithelial migration promoting effect (in words)	Corneal Epithelial Migration Rate (%) [2] [%]
O=c1ccn([C@@H]2O[C@H](COP(=O)([O-])OP(=O)([O-])OP(=O)([O-])O)[C@@H](O)[C@H]2O)c(=O)[nH]1.[Na+].[Na+].[Na+] [UTP-Na, uridine 5′-triphosphate trisodium]	123.1	significant corneal epithelial migration promoting effects	–
O=c1ccn([C@@H]2O[C@H](COP(=O)([O-])OP(=O)([O-])O)[C@@H](O)[C@H]2O)c(=O)[nH]1.[Na+].[Na+] [UDP-Na, uridine 5′-diphosphate di-sodium]	115.3	significant corneal epithelial migration promoting effects	–
Nc1ncnc2c1ncn2[C@@H]1O[C@H](COP(=O)([O-])OP(=O)([O-])O)[C@@H](O)[C@H]1O.[Na+].[Na+] [ADP-Na, adenosine 5′-diphosphate disodium]	–	significant corneal epithelial migration promoting effects	116.1
O=c1ccn([C@@H]2O[C@H](COP(=O)([O-])OP(=O)([O-])OP(=O)([O-])OP(=O)([O-])OC[C@H]3O[C@@H](n4ccc(=O)[nH]c4=O)[C@H](O)[C@@H]3O)[C@@H](O)[C@H]2O)c(=O)[nH]1.[Na+].[Na+].[Na+].[Na+] [DUTP-Na, P^1, P^4-di(uridine-5′)tetraphosphate tetrasodium]	118.9	significant corneal epithelial migration promoting effects	–
Nc1ncnc2c1ncn2[C@@H]1O[C@H](COP(=O)([O-])OP(=O)([O-])OP(=O)([O-])O)[C@@H](O)[C@H]1O.[Na+].[Na+].[Na+] [ATP-Na, adenosine 5′-triphosphate trisodium]	–	significant corneal epithelial migration promoting effects	119.3
